Experimental findings from US4351763A, “Pharmacologically active peptides” (Eli Lilly and Company, priority 1981, dated 1982) are described below.

The assay concerns mouse. Briefly: mouse hot plate test (analgesic activity). Conditions: hot plate 52° C., 15 minutes after administration, latency until jump. In kind it is in vivo. Here is the method:
In this test, a mouse is placed inside an upright acrylic cylinder comprising, as its base, a hot plate surface which is maintained at 52° C. The mouse is given, orally or by subcutaneous injection, a predetermined amount of test compound dissolved or suspended in a suitable carrier, and, 15 minutes after administration of the test compound, the mouse is placed on the hot plate surface. The latency in seconds until the mouse jumps from the hot plate surface is measured. […] This must occur in a dose range which produces no motor incoordination or incapacitation. The following Table records the ED50 results obtained from this test.
(In general: Thermal pain tests record how soon the animal reacts.)

Where a SMILES comes first, the peptide text is derived from it. [ ]: non-standard residue; d: D form. Phe(4-F) = N[C@@H](Cc1ccc(F)cc1)C(=O)O; NMeM = CN[C@@H](CCSC)C(=O)O

As to `C[C@@H](NC(=O)[C@@H](N)Cc1ccc(O)cc1)C(=O)NCC(=O)N[C@@H](Cc1ccc(F)cc1)C(=O)N[C@@H](C(N)=O)c1ccccc1` [Example 3 D-Pgl, L-Tyrosyl-D-alanyl-glycyl-L-p-fluorophenylalanyl-D-phenylglycinamide], the “Analgesic Activity, Hot Plate Test ED50, mg./kg., subcutaneous” value (“Analgesic Activity, Hot Plate Test ED50” for short) is 0.103 mg/kg.
`C[C@@H](NC(=O)[C@@H](N)Cc1ccc(O)cc1)C(=O)NCC(=O)N[C@@H](Cc1ccc(F)cc1)C(=O)N[C@H](C(N)=O)c1ccccc1` [Example 3 L-Pgl, L-Tyrosyl-D-alanyl-glycyl-L-p-fluorophenylalanyl-L-phenylglycinamide]: the “Analgesic Activity, Hot Plate Test ED50” value turned out to be 0.063 mg/kg.
Turning to `COc1ccc([C@H](NC(=O)[C@H](Cc2ccc(F)cc2)NC(=O)CNC(=O)[C@@H](C)NC(=O)[C@@H](N)Cc2ccc(O)cc2)C(N)=O)cc1` [Example 2, L-Tyrosyl-D-alanylglycyl-L-p-fluorophenylalanyl-L-p-methoxyphenylglycinamide], the “Analgesic Activity, Hot Plate Test ED50” value came out at 1.04 mg/kg.
Then `CSCC[C@@H](C(N)=O)N(C)C(=O)[C@H](Cc1ccc(F)cc1)NC(=O)CNC(=O)[C@H](NC(=O)[C@@H](N)Cc1ccc(O)cc1)[C@H](C)O` [Example 4, L-Tyrosyl-D-threonylglycyl-L-p-fluorophenylalanyl-L-(N^α -methyl)methioninamide] (H-Y[dT]G[Phe(4-F)][NMeM]-NH2), with 0.088 mg/kg; and `CSCC[C@@H](C(N)=O)N(C)C(=O)[C@H](Cc1ccc(F)cc1)NC(=O)CNC(=O)[C@@H](C)NC(=O)[C@@H](N)Cc1ccc(O)cc1` [Example 1, L-Tyrosyl-D-alanylglycyl-L-p-fluorophenylalanyl-L-(N^α -methyl)methioninamide], with 0.023 mg/kg.
